Paper PMC8580319, “Dual activities of ACC synthase: Novel clues regarding the molecular evolution of ACS genes” (Science Advances, 2021)

Tests used:
Conditions in all cases: Cβ-S lyase activity; 4 mM L-cystine, 100 μM PLP, 30°C
SlACS4 = biological target: T1, SlACS4 (Solanum lycopersicum, UniProt P29535); test: pyruvate formation, […],4-dinitrophenylhydrazine, A520; type: biochemical
T1 construct: gene ACS4; recombinant, His or GST tag, from E. coli

AtACS8 = biological target: T2, AtACS8 (Arabidopsis thaliana, UniProt Q9T065); test: as above; type: biochemical
T2 construct: gene ACS8; recombinant, His or GST tag, from E. coli
T2 sequence (Q9T065 1-469): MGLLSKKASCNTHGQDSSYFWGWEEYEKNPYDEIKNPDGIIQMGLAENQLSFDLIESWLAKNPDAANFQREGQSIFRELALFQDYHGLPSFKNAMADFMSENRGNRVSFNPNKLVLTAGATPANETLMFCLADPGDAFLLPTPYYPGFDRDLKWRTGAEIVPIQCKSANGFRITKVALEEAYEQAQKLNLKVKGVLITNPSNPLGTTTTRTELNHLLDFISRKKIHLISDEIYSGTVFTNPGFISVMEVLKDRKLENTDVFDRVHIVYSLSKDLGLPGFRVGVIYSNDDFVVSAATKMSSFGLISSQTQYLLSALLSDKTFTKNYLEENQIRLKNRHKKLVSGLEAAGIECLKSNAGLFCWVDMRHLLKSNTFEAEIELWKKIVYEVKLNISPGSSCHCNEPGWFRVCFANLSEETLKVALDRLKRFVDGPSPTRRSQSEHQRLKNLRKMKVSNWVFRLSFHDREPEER

MdACS1 = biological target: T3, MdACS1 (Malus domestica, UniProt P37821); test: as above; type: biochemical
T3 construct: gene ACS-1; recombinant, His or GST tag, from E. coli
T3 sequence (P37821 1-473): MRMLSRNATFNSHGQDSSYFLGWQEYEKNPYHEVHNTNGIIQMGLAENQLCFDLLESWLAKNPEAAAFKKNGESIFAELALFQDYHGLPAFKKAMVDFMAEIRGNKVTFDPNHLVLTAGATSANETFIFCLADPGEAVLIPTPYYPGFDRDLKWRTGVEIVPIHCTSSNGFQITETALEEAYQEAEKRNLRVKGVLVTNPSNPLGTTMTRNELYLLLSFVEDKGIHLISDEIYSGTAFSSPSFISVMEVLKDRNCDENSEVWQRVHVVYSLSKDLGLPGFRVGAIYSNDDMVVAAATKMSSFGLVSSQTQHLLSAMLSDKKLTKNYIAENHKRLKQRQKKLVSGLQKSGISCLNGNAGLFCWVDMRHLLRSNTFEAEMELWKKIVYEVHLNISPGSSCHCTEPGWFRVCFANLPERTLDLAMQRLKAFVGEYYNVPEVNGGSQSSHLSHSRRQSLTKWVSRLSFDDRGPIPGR

OsACS5 = biological target: T4, OsACS5 (Oryza sativa, UniProt A0A0P0UZP7)
T4 construct: gene ACS5
T4 sequence (A0A0P0UZP7 whole entry): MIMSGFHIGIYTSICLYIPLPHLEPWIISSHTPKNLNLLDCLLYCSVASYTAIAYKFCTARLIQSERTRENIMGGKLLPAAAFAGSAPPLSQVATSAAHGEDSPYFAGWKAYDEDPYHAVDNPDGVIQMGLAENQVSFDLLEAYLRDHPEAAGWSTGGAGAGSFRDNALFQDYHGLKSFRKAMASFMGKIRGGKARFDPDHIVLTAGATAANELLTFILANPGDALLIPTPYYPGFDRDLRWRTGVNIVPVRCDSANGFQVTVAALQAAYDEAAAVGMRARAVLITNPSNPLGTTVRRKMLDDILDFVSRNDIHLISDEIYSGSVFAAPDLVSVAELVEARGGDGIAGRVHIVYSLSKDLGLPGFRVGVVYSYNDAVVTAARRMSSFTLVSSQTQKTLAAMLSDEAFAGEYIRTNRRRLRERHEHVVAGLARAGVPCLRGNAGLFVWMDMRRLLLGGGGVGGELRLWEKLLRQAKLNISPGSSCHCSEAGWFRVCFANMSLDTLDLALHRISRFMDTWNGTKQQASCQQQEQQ

OsACS1 = biological target: T5, OsACS1 (Oryza sativa, UniProt A2XLL2); test: pyruvate formation, […],4-dinitrophenylhydrazine, A520; type: biochemical
T5 construct: gene ACC1; recombinant, His or GST tag, from E. coli
T5 sequence (A2XLL2 1-487): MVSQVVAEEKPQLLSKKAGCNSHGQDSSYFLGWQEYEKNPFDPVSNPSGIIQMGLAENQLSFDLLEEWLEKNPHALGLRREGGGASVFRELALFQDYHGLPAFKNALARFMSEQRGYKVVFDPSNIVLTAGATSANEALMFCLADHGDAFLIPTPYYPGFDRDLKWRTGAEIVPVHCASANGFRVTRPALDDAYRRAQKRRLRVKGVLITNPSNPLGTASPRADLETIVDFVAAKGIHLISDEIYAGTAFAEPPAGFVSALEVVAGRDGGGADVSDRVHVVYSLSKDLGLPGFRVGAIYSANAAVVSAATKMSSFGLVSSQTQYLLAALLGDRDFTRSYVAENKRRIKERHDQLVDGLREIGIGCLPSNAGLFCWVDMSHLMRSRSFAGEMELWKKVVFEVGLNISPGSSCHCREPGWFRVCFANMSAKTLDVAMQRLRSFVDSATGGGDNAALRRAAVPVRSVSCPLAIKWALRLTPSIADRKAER

AtACS6 = biological target: T6, AtACS6 (Arabidopsis thaliana, UniProt Q9SAR0); test: as above; type: biochemical
T6 construct: gene ACS6; recombinant, His or GST tag, from E. coli
T6 sequence (Q9SAR0 1-495): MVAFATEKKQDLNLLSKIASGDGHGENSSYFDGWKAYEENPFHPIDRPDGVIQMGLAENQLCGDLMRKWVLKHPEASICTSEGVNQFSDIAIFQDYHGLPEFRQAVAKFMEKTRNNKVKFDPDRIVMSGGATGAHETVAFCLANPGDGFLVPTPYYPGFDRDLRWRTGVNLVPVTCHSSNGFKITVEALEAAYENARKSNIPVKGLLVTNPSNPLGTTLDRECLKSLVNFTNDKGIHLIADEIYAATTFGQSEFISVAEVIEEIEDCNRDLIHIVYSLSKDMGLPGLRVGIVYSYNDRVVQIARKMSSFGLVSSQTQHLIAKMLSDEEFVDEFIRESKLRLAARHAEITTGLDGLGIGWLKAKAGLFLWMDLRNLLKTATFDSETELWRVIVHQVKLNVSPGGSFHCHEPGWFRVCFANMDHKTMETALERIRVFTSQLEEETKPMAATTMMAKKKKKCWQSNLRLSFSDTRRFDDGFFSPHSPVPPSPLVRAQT

GmACS7-like = biological target: T7, GmACS7-like (Glycine max, UniProt I1K634); test: as above; type: biochemical
T7 construct: gene LOC100799562; recombinant, His or GST tag, from E. coli
T7 sequence (I1K634 1-440): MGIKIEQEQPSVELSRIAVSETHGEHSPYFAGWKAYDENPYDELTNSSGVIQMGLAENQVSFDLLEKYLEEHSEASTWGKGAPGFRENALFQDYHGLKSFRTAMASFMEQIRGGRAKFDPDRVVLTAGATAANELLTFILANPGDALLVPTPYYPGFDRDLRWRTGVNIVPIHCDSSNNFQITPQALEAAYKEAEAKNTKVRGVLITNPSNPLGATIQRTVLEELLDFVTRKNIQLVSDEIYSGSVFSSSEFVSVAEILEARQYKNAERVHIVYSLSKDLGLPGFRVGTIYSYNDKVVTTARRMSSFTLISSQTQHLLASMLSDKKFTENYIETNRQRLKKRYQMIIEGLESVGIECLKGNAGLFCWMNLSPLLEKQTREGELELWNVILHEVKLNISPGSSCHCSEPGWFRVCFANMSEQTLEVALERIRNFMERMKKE

T1 sequence (P29535 whole entry): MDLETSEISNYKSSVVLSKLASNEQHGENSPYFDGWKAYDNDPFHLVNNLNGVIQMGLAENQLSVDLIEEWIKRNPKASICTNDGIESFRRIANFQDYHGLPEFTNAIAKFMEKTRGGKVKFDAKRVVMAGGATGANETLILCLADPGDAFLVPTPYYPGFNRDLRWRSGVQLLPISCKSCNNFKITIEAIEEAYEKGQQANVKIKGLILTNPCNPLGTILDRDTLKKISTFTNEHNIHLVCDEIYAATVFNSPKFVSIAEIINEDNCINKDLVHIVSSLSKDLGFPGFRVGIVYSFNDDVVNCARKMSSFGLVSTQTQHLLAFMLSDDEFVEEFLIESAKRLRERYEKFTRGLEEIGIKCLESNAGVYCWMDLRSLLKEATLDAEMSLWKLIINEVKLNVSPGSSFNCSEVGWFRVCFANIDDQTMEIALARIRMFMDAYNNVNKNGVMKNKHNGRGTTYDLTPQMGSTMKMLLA

N[C@@H](CSSC[C@H](N)C(=O)O)C(=O)O [L-cystine]
pyruvate formation, 2,4-dinitrophenylhydrazine, A520 (SlACS4): all of them had ACS and Cβ-S lyase dual enzymatic activities
pyruvate formation, 2,4-dinitrophenylhydrazine, A520 (AtACS8): all of them had ACS and Cβ-S lyase dual enzymatic activities
pyruvate formation, 2,4-dinitrophenylhydrazine, A520 (MdACS1): MdACS1 indeed had both ACS and Cβ-S lyase activities in vitro
pyruvate formation, 2,4-dinitrophenylhydrazine, A520 (OsACS5): all of them had ACS and Cβ-S lyase dual enzymatic activities
pyruvate formation, 2,4-dinitrophenylhydrazine, A520 (OsACS1): all of them had ACS and Cβ-S lyase dual enzymatic activities
pyruvate formation, 2,4-dinitrophenylhydrazine, A520 (AtACS6): all of them had ACS and Cβ-S lyase dual enzymatic activities
pyruvate formation, 2,4-dinitrophenylhydrazine, A520 (GmACS7-like): all of them had ACS and Cβ-S lyase dual enzymatic activities
